The results in this text go back to paper PMC13188182, “Role of DZ2002 in reducing corneal graft rejection in rats by influencing Th17 activation via inhibition of the PI3K/AKT pathway and downregulation of TRAF1” (Open Life Sciences, 2026).

pKd: −log10 of the molar value.

The target of this assay is T1, TRAF1.
T1 construct: TRAF1 protein amine-coupled to carboxylated SPR chip
Put plainly: surface plasmon resonance, TRAF1 immobilized. It counts as binding. The following applies: PBST running buffer; analyte 0-500 μM; Fc2-Fc1 double-referenced. Background: In SPR one partner is held on a chip, and binding of the other changes the refractive index at the surface.

The pKd is −log10 of the Kd, conventionally taken in molar units. On to `N[C@@H](CCS)C(=O)O` [L-homocysteine], for which the pKd is 3.61.
